Results taken from PubChem BioAssay AID256 (DTP/NCI, 2004).
Several values for one entry are separate records, joined by “and”; a condition that tells them apart may be missing. Equal entries are not always repeated. Toxic doses and inconclusive results are not listed. Rule for the calls: active = survival T/C of 150% or more; inactive = T/C below 125% in these data.

Test system: CD2F1 mice, L1210 leukemia ip, survival T/C
Test: NCI In Vivo Anticancer Drug Screen. Data for tumor model L1210 Leukemia (intraperitoneal) in CD2F1 (CDF1) mice
Settings: higher = longer survival
In short: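 Ratio T/C, where T is the treated-group value and C the vehicle-dosed control value, from mice implanted with a transplantable tumor.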

[1] = endpoint: mean survival time, dose: 100.0 mg/kg/injection, schedule: Q04DX003 (ip), vehicle: saline with Tween-80
[2] = endpoint: mean survival time, dose: 200.0 mg/kg/injection, schedule: Q04DX003 (ip), vehicle: saline with Tween-80
[3] = endpoint: mean survival time, dose: 400.0 mg/kg/injection, schedule: Q04DX003 (ip), vehicle: saline with Tween-80
[4] = endpoint: mean survival time, dose: 50.0 mg/kg/injection, schedule: Q04DX003 (ip), vehicle: saline with Tween-80
[5] = endpoint: mean survival time, dose: 25.0 mg/kg/injection, schedule: Q04DX002 (ip), vehicle: saline with Tween-80
[6] = endpoint: mean survival time, dose: 50.0 mg/kg/injection, schedule: Q04DX002 (ip), vehicle: saline with Tween-80
[7] = endpoint: mean survival time, dose: 100.0 mg/kg/injection, schedule: Q04DX002 (ip), vehicle: saline with Tween-80
[8] = endpoint: mean survival time, dose: 200.0 mg/kg/injection, schedule: Q04DX002 (ip), vehicle: saline with Tween-80
[9] = endpoint: mean survival time, dose: 100.0 mg/kg/injection, schedule: Q04DX003 (ip), vehicle: saline
[10] = endpoint: mean survival time, dose: 200.0 mg/kg/injection, schedule: Q04DX003 (ip), vehicle: saline
[11] = endpoint: mean survival time, dose: 400.0 mg/kg/injection, schedule: Q04DX003 (ip), vehicle: saline
[12] = endpoint: mean survival time, dose: 50.0 mg/kg/injection, schedule: Q04DX002 (ip), vehicle: saline
[13] = endpoint: mean survival time, dose: 100.0 mg/kg/injection, schedule: Q01DX009 (ip), vehicle: saline with Tween-80
[14] = endpoint: mean survival time, dose: 200.0 mg/kg/injection, schedule: Q01DX009 (ip), vehicle: saline with Tween-80
[15] = endpoint: mean survival time, dose: 400.0 mg/kg/injection, schedule: Q01DX009 (ip), vehicle: saline with Tween-80
[16] = endpoint: mean survival time, dose: 100.0 mg/kg/injection, schedule: Q01DX001 (ip), vehicle: saline with Tween-80
[17] = endpoint: mean survival time, dose: 200.0 mg/kg/injection, schedule: Q01DX001 (ip), vehicle: saline with Tween-80
[18] = endpoint: mean survival time, dose: 400.0 mg/kg/injection, schedule: Q01DX001 (ip), vehicle: saline with Tween-80
[19] = endpoint: mean survival time, dose: 100.0 mg/kg/injection, schedule: Q01DX001 (ip), vehicle: saline
[20] = endpoint: mean survival time, dose: 200.0 mg/kg/injection, schedule: Q01DX001 (ip), vehicle: saline
[21] = endpoint: mean survival time, dose: 400.0 mg/kg/injection, schedule: Q01DX001 (ip), vehicle: saline
[22] = endpoint: mean survival time, dose: 50.0 mg/kg/injection, schedule: Q01DX009 (ip), vehicle: saline with Tween-80
[23] = endpoint: mean survival time, dose: 12.5 mg/kg/injection, schedule: Q04DX002 (ip), vehicle: saline with Tween-80
[24] = endpoint: mean survival time, dose: 25.0 mg/kg/injection, schedule: Q01DX009 (ip), vehicle: Klucel (hydroxypropylcellulose) (HPC)
[25] = endpoint: mean survival time, dose: 50.0 mg/kg/injection, schedule: Q01DX009 (ip), vehicle: Klucel (hydroxypropylcellulose) (HPC)
[26] = endpoint: mean survival time, dose: 100.0 mg/kg/injection, schedule: Q01DX009 (ip), vehicle: Klucel (hydroxypropylcellulose) (HPC)
[27] = endpoint: mean survival time, dose: 200.0 mg/kg/injection, schedule: Q01DX009 (ip), vehicle: Klucel (hydroxypropylcellulose) (HPC)
[28] = endpoint: mean survival time, dose: 400.0 mg/kg/injection, schedule: Q04DX002 (ip), vehicle: saline with Tween-80

Measured: T/C

c1ccc(NC(Nc2ccccn2)c2ccncc2)nc1
inactive: endpoint: mean survival time, dose: 54.25 mg/kg/injection, schedule: Q04DX003 (ip), vehicle: saline with Tween-80 97 % of control | [1] 102 % of control | endpoint: mean survival time, dose: 108.5 mg/kg/injection, schedule: Q04DX003 (ip), vehicle: saline with Tween-80 103 % of control | [2] 108 % of control | endpoint: mean survival time, dose: 217.0 mg/kg/injection, schedule: Q04DX003 (ip), vehicle: saline with Tween-80 102 % of control | [3] 110 % of control | endpoint: mean survival time, dose: 434.0 mg/kg/injection, schedule: Q04DX003 (ip), vehicle: saline with Tween-80 100 % of control | endpoint: mean survival time, dose: 600.0 mg/kg/injection, schedule: Q04DX003 (ip), vehicle: saline with Tween-80 113 % of control

CC(=O)C(C)OS(C)(=O)=O (stereo not given)
inactive: endpoint: mean survival time, dose: 25.0 mg/kg/injection, schedule: Q04DX003 (ip), vehicle: saline with Tween-80 108 % of control | [4] 108 % of control | [1] 109 % of control | [2] 120 % of control

C=CN
inactive: [5] 95 % of control | [6] 106 % of control | [7] 98 % of control | [8] 98 % of control

C=CCNC(=O)/C=C/C(=O)O
inactive: [9] 97 % of control | [10] 97 % of control | [11] 103 % of control

O=C(c1ccccc1CO)N1CCOCC1
inactive: endpoint: mean survival time, dose: 12.5 mg/kg/injection, schedule: Q04DX002 (ip), vehicle: saline 98 % of control | endpoint: mean survival time, dose: 25.0 mg/kg/injection, schedule: Q04DX002 (ip), vehicle: saline 94 % of control | [12] 94 % of control

COC(=O)c1cc2ccccc2cc1OC
inactive: [13] 102 % of control | [1] 95 % of control | [14] 109 % of control | [2] 97 % of control | [15] 101 % of control | [3] 97 % of control

CC(=O)N(C)[Si](C)(C)C
inactive: [16] 96 % of control | endpoint: mean survival time, dose: 100.0 mg/kg/injection, schedule: Q01DX009 (ip), vehicle: saline sonified 98 % of control | [9] 98 % of control | [17] 100 % of control | endpoint: mean survival time, dose: 200.0 mg/kg/injection, schedule: Q01DX009 (ip), vehicle: saline sonified 96 % of control | [10] 97 % of control | [18] 106 % of control | endpoint: mean survival time, dose: 400.0 mg/kg/injection, schedule: Q01DX009 (ip), vehicle: saline sonified 96 % of control | [11] 101 % of control

CC(=O)OC1OC(=O)C(C)(C(C)=O)C1C (stereo not given)
inactive: endpoint: median survival time, dose: 2.5 mg/kg/injection, schedule: Q01DX009 (ip), vehicle: distilled water + alcohol 103 % of control | endpoint: median survival time, dose: 5.0 mg/kg/injection, schedule: Q01DX009 (ip), vehicle: distilled water + alcohol 101 % of control | endpoint: median survival time, dose: 10.0 mg/kg/injection, schedule: Q01DX009 (ip), vehicle: distilled water + alcohol 104 % of control | endpoint: median survival time, dose: 20.0 mg/kg/injection, schedule: Q01DX009 (ip), vehicle: distilled water + alcohol 103 % of control

CCCCCCCCOC(=O)Nc1ccc(S(=O)(=O)N(CCC)CCC)cc1
inactive: [19] 96 % of control | [20] 92 % of control | [21] 88 % of control

Cc1noc(N)c1C
inactive: [22] 92 % of control | [13] 95 % of control | [14] 92 % of control

CN=C(NC)N/N=C(/c1ccc(Br)cc1)c1ccc(C(F)(F)F)cc1
inactive: [23] 90 % of control | [5] 90 % of control | [4] 98 % of control | endpoint: mean survival time, dose: 100.0 mg/kg/injection, schedule: Q01DX001 (ip), vehicle: saline sonified 97 % of control | endpoint: mean survival time, dose: 200.0 mg/kg/injection, schedule: Q01DX001 (ip), vehicle: saline sonified 93 % of control

O=NN(CCCl)C(=O)Nc1ccc2[nH]c3ccccc3c2c1
inactive: [24] 101 % of control | [25] 116 % of control | [26] 118 % of control | endpoint: mean survival time, dose: 177.0 mg/kg/injection, schedule: Q01DX009 (ip), vehicle: saline with Tween-80 91 % of control | [27] 123 % of control | [15] 104 % of control

O=C(O)CS(=O)(=O)O
inactive: [12] 100 % of control | endpoint: mean survival time, dose: 100.0 mg/kg/injection, schedule: Q04DX002 (ip), vehicle: saline 100 % of control | endpoint: mean survival time, dose: 200.0 mg/kg/injection, schedule: Q04DX002 (ip), vehicle: saline 100 % of control

C1CCC2(CC1)OCCS2
inactive: [19] 96 % of control | [20] 94 % of control

COC(=O)c1ccc(N(C)C/C(CN2C(=O)c3ccccc3C2=O)=N\O)cc1
inactive: endpoint: mean survival time, dose: 75.0 mg/kg/injection, schedule: Q01DX001 (ip), vehicle: other 92 % of control | endpoint: mean survival time, dose: 150.0 mg/kg/injection, schedule: Q01DX001 (ip), vehicle: other 106 % of control

O=S(=O)(F)c1cc(Cl)c(O)c(S(=O)(=O)F)c1
inactive: [24] 97 % of control | [25] 103 % of control | [26] 101 % of control

N#Cc1cccc(N)c1
inactive: [13] 106 % of control | [14] 94 % of control | [15] 98 % of control

COc1ccc(C(=O)NNC(=O)c2ccc(OC)cc2)cc1
inactive: endpoint: mean survival time, dose: 100.0 mg/kg/injection, schedule: Q01DX001 (ip), vehicle: Klucel (hydroxypropylcellulose) (HPC) 108 % of control | endpoint: mean survival time, dose: 200.0 mg/kg/injection, schedule: Q01DX001 (ip), vehicle: Klucel (hydroxypropylcellulose) (HPC) 104 % of control | endpoint: mean survival time, dose: 400.0 mg/kg/injection, schedule: Q01DX001 (ip), vehicle: Klucel (hydroxypropylcellulose) (HPC) 100 % of control

CN(C)C(=O)C(Cc1c[nH]c2ccccc12)NC(=O)c1ccccc1 (stereo not given)
inactive: [7] 95 % of control | [8] 103 % of control | [28] 98 % of control

CCOC(=O)Nc1ccc(S(=O)(=O)O)cc1
inactive: [19] 94 % of control | [20] 105 % of control | [21] 98 % of control

Cc1ccc(NC(=O)Oc2cc(C)c(Cl)cc2C)c([N+](=O)[O-])c1
inactive: [26] 106 % of control | [27] 95 % of control | endpoint: mean survival time, dose: 400.0 mg/kg/injection, schedule: Q01DX009 (ip), vehicle: Klucel (hydroxypropylcellulose) (HPC) 92 % of control

CC(=O)Nc1cc(Cl)ccc1C(=O)O
inactive: [22] 96 % of control | [13] 98 % of control | [14] 100 % of control

COc1cc(N=CNc2cc(OC)n[n+]([O-])c2)c[n+]([O-])n1
inactive: [23] 111 % of control | [5] 86 % of control | [6] 101 % of control

OC1CCCCCCCCCCC1C(O)(C(F)(F)F)C(F)(F)F (stereo not given)
inactive: [16] 93 % of control and 89 % of control | [13] 86 % of control | [17] 89 % of control | [14] 91 % of control | [18] 91 % of control | [15] 97 % of control

CCCCCCCCc1ccc(O)c(Cl)c1
inactive: [1] 94 % of control | [2] 91 % of control | [3] 94 % of control

CC(C)(CCC(C)(C)NCCCN)NCCCN
inactive: endpoint: mean survival time, dose: 12.5 mg/kg/injection, schedule: Q01DX009 (ip), vehicle: water 94 % of control | endpoint: mean survival time, dose: 25.0 mg/kg/injection, schedule: Q01DX009 (ip), vehicle: water 97 % of control | endpoint: mean survival time, dose: 50.0 mg/kg/injection, schedule: Q01DX009 (ip), vehicle: water 109 % of control

Nc1c(Br)cc(Br)c2c1CCC2
inactive: [7] 94 % of control | [8] 105 % of control | [28] 94 % of control

CCOC(=O)CCSCCC(=O)OCC
inactive: [1] 100 % of control | [2] 96 % of control | [3] 98 % of control

O=[N+]([O-])c1ccc2ccccc2c1-c1c([N+](=O)[O-])ccc2ccccc12
inactive: [22] 92 % of control | [13] 90 % of control | [1] 93 % of control | [14] 90 % of control | [2] 87 % of control

O=C(O)c1cc(Cl)c(Cl)cn1
inactive: endpoint: mean survival time, dose: 50.0 mg/kg/injection, schedule: Q01DX001 (ip), vehicle: saline with Tween-80 97 % of control | [16] 98 % of control | [17] 103 % of control
